# Measured values from ChEMBL document CHEMBL1201862, “PubChem BioAssay data set” (2004).
#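 In this assay, cells in 96-well plates receive the compound at five concentrations for 48 hours. Endpoints are linearly interpolated between the surrounding concentrations. The concentration for 50% growth inhibition is given as GI50.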 Active and inactive are the calls of the source. Cut-off read from the data, not from the text of the source: active = GI50 up to about 1.1 µM and inactive = higher.
# Experiments:
# Experiment in all cases: DTP human tumour cell line panel, 48 h
# RXF 631 = system: RXF 631
# SK-MEL-28 = system: SK-MEL-28
# HOP-18 = system: HOP-18
# Malme-3M = system: Malme-3M
# SF-268 = system: SF-268
# A549 = system: A549
# NCI-H460 = system: NCI-H460
# HCT-116 = system: HCT-116
# 786-0 = system: 786-0
# SK-OV-3 = system: SK-OV-3
# M14 = system: M14
# NCI-H23 = system: NCI-H23
# DMS-114 = system: DMS-114
# OVCAR-5 = system: OVCAR-5
# SK-MEL-5 = system: SK-MEL-5
# M19-MEL = system: M19-MEL
# HL-60 = system: HL-60
# IGROV-1 = system: IGROV-1
# MOLT-4 = system: MOLT-4
# SF-539 = system: SF-539
# HT-29 = system: HT-29
# SW-620 = system: SW-620
# DLD-1 = system: DLD-1
# OVCAR-8 = system: OVCAR-8
# SNB-75 = system: SNB-75
# HOP-62 = system: HOP-62
# TK-10 = system: TK-10
# SF-295 = system: SF-295
# CCRF-CEM = system: CCRF-CEM
# HOP-92 = system: HOP-92
# COLO 205 = system: COLO 205
# SNB-78 = system: SNB-78
# HCT-15 = system: HCT-15
# KM12 = system: KM12
# OVCAR-3 = system: OVCAR-3
# SN12C = system: SN12C
# LOX IMVI = system: LOX IMVI
# A498 = system: A498
# UACC-62 = system: UACC-62
# RXF 393 = system: RXF 393
# DMS-273 = system: DMS-273
# HCC 2998 = system: HCC 2998
# OVCAR-4 = system: OVCAR-4
# UACC-257 = system: UACC-257
# CAKI-1 = system: CAKI-1
# ACHN = system: ACHN
# SNB-19 = system: SNB-19
# EKVX = system: EKVX
# UO-31 = system: UO-31
# K562 = system: K562
# SK-MEL-2 = system: SK-MEL-2
# NCI-H226 = system: NCI-H226
# U-251 = system: U-251
compound,measurement,setting,value
CC(C)(C)c1ccc(OCCOCCOc2ccc(C(C)(C)C)cc2S(=O)(=O)Nc2ccc([N+](=O)[O-])cc2)c(S(=O)(=O)Nc2ccc([N+](=O)[O-])cc2)c1,GI50,RXF 631,6.82 µM (inactive)
same,GI50,SK-MEL-28,15.5 µM (inactive)
same,GI50,HOP-18,9.75 µM (inactive)
same,GI50,Malme-3M,83.9 µM (inactive)
same,GI50,SF-268,8.45 µM (inactive)
same,GI50,A549,4.42 µM (inactive)
same,GI50,NCI-H460,8.85 µM (inactive)
same,GI50,HCT-116,4.86 µM (inactive)
same,GI50,786-0,45.6 µM (inactive)
same,GI50,SK-OV-3,> 100 µM (inactive)
same,GI50,M14,8.28 µM (inactive)
same,GI50,NCI-H23,12.7 µM (inactive)
same,GI50,DMS-114,9.42 µM (inactive)
same,GI50,OVCAR-5,> 100 µM (inactive)
same,GI50,SK-MEL-5,6.17 µM (inactive)
same,GI50,M19-MEL,6.11 µM (inactive)
same,GI50,HL-60,5.58 µM (inactive)
same,GI50,IGROV-1,12.7 µM (inactive)
same,GI50,MOLT-4,3.01 µM (inactive)
same,GI50,SF-539,> 100 µM (inactive)
same,GI50,HT-29,7.38 µM (inactive)
same,GI50,SW-620,61.8 µM (inactive)
same,GI50,DLD-1,38.6 µM (inactive)
same,GI50,OVCAR-8,9.95 µM (inactive)
same,GI50,SNB-75,56.6 µM (inactive)
same,GI50,HOP-62,81.7 µM (inactive)
same,GI50,TK-10,5.64 µM (inactive)
same,GI50,SF-295,8.47 µM (inactive)
same,GI50,CCRF-CEM,5.42 µM (inactive)
same,GI50,HOP-92,4.07 µM (inactive)
same,GI50,COLO 205,21.8 µM (inactive)
same,GI50,SNB-78,15.2 µM (inactive)
same,GI50,HCT-15,7.69 µM
same,GI50,KM12,7.53 µM (inactive)
same,GI50,OVCAR-3,7.43 µM (inactive)
same,GI50,SN12C,7.19 µM (inactive)
same,GI50,LOX IMVI,23.4 µM (inactive)
same,GI50,A498,8.15 µM (inactive)
same,GI50,UACC-62,6.21 µM (inactive)
same,GI50,RXF 393,19.2 µM (inactive)
same,GI50,DMS-273,7.94 µM (inactive)
same,GI50,HCC 2998,8.73 µM (inactive)
same,GI50,OVCAR-4,33.7 µM (inactive)
same,GI50,UACC-257,42.1 µM (inactive)
same,GI50,CAKI-1,9.31 µM (inactive)
same,GI50,ACHN,7.13 µM (inactive)
same,GI50,SNB-19,76.4 µM (inactive)
same,GI50,EKVX,62.5 µM (inactive)
same,GI50,UO-31,4.45 µM (inactive)
same,GI50,K562,6.21 µM (inactive)
same,GI50,SK-MEL-2,8.07 µM (inactive)
same,GI50,NCI-H226,47.8 µM (inactive)
same,GI50,U-251,7.28 µM (inactive)
